Experimental data reported in patent publication US5939523A, “Purification of dalbaheptide antibiotics by isoelectric focusing” (Gruppo Lepetit SpA, priority 1995, dated 1999).

Experiment: Analytical immobilized pH gradient (IPG) gels for determining pI values
Format: physicochemical
Settings: analytical IPG gel, pH interval 8.0 to 9.0, mixture of 8M urea and 1% CHAPS
Source text: Preparation of Analytical Immobilized pH Gradient (IPG) Gels, for Determining the pI Values of the Main Component and of the Impurities
Gel dimension: 25×10 cm, 0, 5 mm thick; pH interval: 7.0 to 10.0.
The IPG ranges are set in a 5% T, 4% C polyacrylamide matrix, according to the preparation recipe disclosed in Ref. 110. After preparing the two limiting, acidic and basic mixtures, they are titrated (with a weak acid and a weak base) to pH values close to neutrality. This is important in order to ensure uniform polymerization and efficient monomer conversion throughout the preformed pH gradient. Upon gel washing in distilled water (3×30 min), all added titrants (as well as catalysts and ungrafted monomers) are efficiently removed. The gels are then equilibrated for 30 min in 2% glycerol solution, dried in air and reswollen in a mixture of 8M urea and 3.5% CHAPS, overnight. The sample is applied in surface wells at the anodic gel side in concentrations from 80 to 600 μg/track. […]
For exactly determining the pI value of the amide derivative of factor B0 and factor B1, the above procedure is repeated under the same conditions, in the pH interval from 8.0 to 9.0 using a mixture of 8M urea and 1% CHAPS. The so determined pI value of the amide derivative of factor B0 is 8.56, whilst the pI value of the amide derivative of factor B1 is 8.40.

pI value	Substance
8.56	6^B -decarboxy-6^B -(hydroxymethyl)-N^63 -3-(dimethyl-amino)propyl amide derivative of antibiotic A40926 factor B0 [amide derivative of factor B0]
8.40	6^B -decarboxy-6^B -(hydroxymethyl)-N^63 -3-(dimethyl-amino)propyl amide derivative of antibiotic A40926 factor B1 [amide derivative of factor B1]
